Assay [1] has as its target T1, TlGK (ADP-dependent glucokinase from Thermococcus litoralis) (Thermococcus litoralis, UniProt Q7M537).
T1 construct: gene glkA; recombinant, purified from LB culture as in Merino et al. (heat shock, ammonium sulfate, two chromatographic steps); two-domain enzyme
The assay is described as follows: X-ray crystal structure […] Å; SAXS. In kind it is binding.

Assay [2] deals with T1, TlGK (ADP-dependent glucokinase from Thermococcus litoralis). The assay is described as follows: isothermal titration calorimetry (data not shown); also SAXS. In kind it is binding. As to conditions: absence of D-glucose; active site; MgADP.
For assay [3] the target is unchanged. In words: product inhibition, G6PDH-coupled assay. As to conditions: competitive vs Mg·ADP, mixed vs D-glucose; Mg·AMP; pH 7.8; 40 °C. The format is biochemical.
Assay [4] shares this target. In words: product inhibition, discontinuous pyruvate kinase / lactate dehydrogenase assay. The note with it: mixed type vs Mg·ADP and vs D-glucose; read-out: inhibition constants. In kind it is biochemical.

Here are results for five compounds from article PMC3688580, “Crystal Structure, SAXS and Kinetic Mechanism of Hyperthermophilic ADP-Dependent Glucokinase from Thermococcus litoralis Reveal a Conserved Mechanism for Catalysis” (PLoS ONE, 2013).

T1 sequence (Q7M537 whole entry): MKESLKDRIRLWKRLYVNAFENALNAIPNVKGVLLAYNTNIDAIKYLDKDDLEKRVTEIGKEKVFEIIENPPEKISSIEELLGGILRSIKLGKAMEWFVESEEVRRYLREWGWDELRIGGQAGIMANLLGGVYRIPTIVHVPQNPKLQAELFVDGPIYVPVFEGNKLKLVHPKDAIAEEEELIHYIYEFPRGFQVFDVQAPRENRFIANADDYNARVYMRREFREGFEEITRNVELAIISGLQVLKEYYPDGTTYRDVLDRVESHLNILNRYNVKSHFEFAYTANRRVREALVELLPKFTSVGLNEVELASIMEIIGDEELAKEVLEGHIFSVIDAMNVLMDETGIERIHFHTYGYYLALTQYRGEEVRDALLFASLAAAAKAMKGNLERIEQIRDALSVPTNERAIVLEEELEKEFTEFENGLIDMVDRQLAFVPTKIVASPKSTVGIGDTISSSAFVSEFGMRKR

As for `Nc1ncnc2c1ncn2[C@@H]1O[C@H](COP(=O)(O)OP(=O)(O)S)[C@@H](O)[C@H]1O` (some centres unmarked) [ADPβS], the “X-ray crystal structure 2.58 Å; SAXS” value in assay [1] (nonhydrolyzable ADP analog with D-glucose and Mg, beta-phosphate lacked density, modelled as AMP) was 4B8S (TlGK·Mg·ADPβS·D-glucose). `Nc1ncnc2c1ncn2[C@@H]1O[C@H](COP(=O)(O)OP(=O)(O)O)[C@@H](O)[C@H]1O` [Mg·ADP]: the dissociation constant entry in assay [2] is listed as “isothermal titration calorimetry experiments demonstrated binding of MgADP to the enzyme”. In the case of `Nc1ncnc2c1ncn2[C@@H]1O[C@H](COP(=O)(O)O)[C@@H](O)[C@H]1O` [Mg·AMP], in assay [3], the inhibition constants result is given as “Mg·AMP behaves as a competitive inhibitor of Mg·ADP”. Turning to `OC[C@H]1OC(O)[C@H](O)[C@@H](O)[C@@H]1O` (stereo partly drawn) [D-glucose], the “X-ray crystal structure 2.58 Å; SAXS” value in assay [1] (ternary complex with Mg·ADPβS, active site) is 4B8S (TlGK·Mg·ADPβS·D-glucose).

On to `O=P(O)(O)OC[C@H]1OC(O)[C@H](O)[C@@H](O)[C@@H]1O` (stereo partly drawn) [D-glucose-6-P], for which the Ki in assay [4] was 782 µM.
